From US4584301A, “Diphenylmethylene piperidines, compositions and methods of use” (Warner-Lambert Company, priority 1985, dated 1986) come the findings set out here.

One test deals with brain dopamine receptors. The experiment in a line: Haloperidol receptor binding assay (HRBA), inhibition of 3H-haloperidol binding. To be noted: rat corpus striatum, 0.6 nM 3H-haloperidol; for IC50: pH 7.7; for HRBA percent inhibition: 1 nM and 10 nM of test drug in primary screen, concentration per value not given.
The target in test [1] is muscarinic cholinergic receptors. Format: binding. The note with it: rat brain homogenate, [3H]QNB, 25° C., pH 7.4; for IC50: read-out: MRBA IC50; for MRBA percent inhibition of total specific binding: concentration not given.
Test [2] concerns the target Muscarinic Cholinergic receptor. The experiment in a line: Affinity for muscarinic cholinergic receptors in rat brain membranes. The test is classed as binding. Here is the method:
This test uses the displacement of [^3 H] quinuclidinyl benzilate ([^3 H]QNB) from specific muscarinic cholinergic receptors in the rat brain to measure in vitro anticholinergic activity of compounds. […]. A Long-Evans male rat weighing 180-200 grams is routinely used. The brain tissue homogenate along with appropriate concentrations of test compounds and [^3 H]QNB is incubated for one hour at 25° C. in a buffer medium of 50 mM Na-K PO4 pH 7.4. The material is filtered and washed on a millipore filter using Whatman GF/B filters. The filters are counted on a scintillation spectrophotometer. A maximal displacement by 0.1 mM oxotremorine is used to determine how much of the total binding is specific for muscarinic receptors.
Results: The results are reported as percent inhibition of total specific binding. Reference: Yamamura, Henry L. and Snyder, Solomon H. (1974). Muscarinic Cholinergic Binding in Rat Brain Proc. Nat. Acad. Sci. USA Vol 71 No. 5 pp. 1725-1729 May 1974.
(§1) for Dopamine D2, Muscarinic, and
(§2) Histamine H1 Receptors in Rat Brain Membranes

The target in a further test is T1, Histamine H1 receptor (Rattus norvegicus, UniProt P31390).
T1 construct: Histamine H1 Receptors in Rat Brain Membranes; from tissue; host or cells: rat brain membranes
T1 sequence (P31390 whole entry): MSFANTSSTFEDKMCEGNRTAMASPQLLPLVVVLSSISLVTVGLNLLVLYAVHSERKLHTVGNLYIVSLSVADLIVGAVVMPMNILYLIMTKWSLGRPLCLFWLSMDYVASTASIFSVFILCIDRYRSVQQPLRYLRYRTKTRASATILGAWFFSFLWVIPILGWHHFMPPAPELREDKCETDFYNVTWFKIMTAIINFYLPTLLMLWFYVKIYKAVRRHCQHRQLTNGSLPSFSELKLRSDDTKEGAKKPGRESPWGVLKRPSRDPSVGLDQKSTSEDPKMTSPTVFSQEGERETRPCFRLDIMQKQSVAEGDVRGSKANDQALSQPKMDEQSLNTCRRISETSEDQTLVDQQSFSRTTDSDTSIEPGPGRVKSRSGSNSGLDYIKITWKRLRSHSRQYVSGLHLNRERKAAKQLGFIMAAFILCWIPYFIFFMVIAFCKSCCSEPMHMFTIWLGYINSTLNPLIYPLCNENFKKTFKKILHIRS
The experiment in a line: Affinity for histamine H1 receptors in rat brain membranes. The test is classed as binding.
Source text: as §1, §2
*Tran V. T., Lebovitz, R., Toll, L., and Snyder, S. H.: [^3 H]Doxepin
interactions with histamine H1 -receptors in guinea pig and rat brai

In another test the target is Dopamine D2 receptor (Rattus norvegicus, UniProt P61169). The experiment in a line: Affinity for dopamine D2 receptors in rat brain membranes. The test is classed as binding.
Chain of Dopamine D2 receptor (P61169 whole entry): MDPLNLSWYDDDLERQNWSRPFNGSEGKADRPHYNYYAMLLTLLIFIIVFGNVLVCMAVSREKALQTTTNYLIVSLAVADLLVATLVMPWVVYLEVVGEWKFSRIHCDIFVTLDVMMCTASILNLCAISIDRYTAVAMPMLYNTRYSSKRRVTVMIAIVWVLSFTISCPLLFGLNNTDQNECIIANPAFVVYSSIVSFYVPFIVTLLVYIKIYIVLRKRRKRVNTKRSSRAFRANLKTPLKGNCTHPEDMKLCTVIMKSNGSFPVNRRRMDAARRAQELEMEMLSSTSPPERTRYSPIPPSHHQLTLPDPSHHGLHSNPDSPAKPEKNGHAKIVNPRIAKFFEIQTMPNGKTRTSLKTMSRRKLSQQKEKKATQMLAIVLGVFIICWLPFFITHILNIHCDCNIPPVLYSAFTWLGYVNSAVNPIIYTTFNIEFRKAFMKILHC
The mark [3] stands for this setting: rat brain membranes, read-out: Receptor Ki, Histamine H1.

Counter-ions that a name gives are not always drawn. Like-named read-outs stand apart in the source and are kept apart here.

The IC50 is the point on the concentration scale where inhibition reaches its midpoint. Consider `O=C(CCN1CCC(=C(c2ccccc2)c2ccccc2)CC1)N1CCC(O)(O)CC1` [Compound 11, 4,4-Piperidinediol, 1-[3-[4-(diphenylmethylene)-1-piperidinyl]-1-oxopropyl]], for which the 50% inhibitory concentration (IC50) on brain dopamine receptors came out at 367 nM; in test [1], 38.3 nM.

As for `O=C(CCCN1CCCCC1)N1CCC(=C(c2ccccc2)c2ccccc2)CC1` [Compound 20, Piperidine, 4-(diphenylmethylene)-1-[1-oxo-4-(1-piperidinyl)butyl]-], the “MRBA percent inhibition of total specific binding” value (“MRBA percent inhibition” for short) in test [1] was 54%.

On to `O=C(CCN1CCC(=C(c2ccccc2)c2ccccc2)CC1)N1CC=C(Oc2ccc(F)cc2)CC1` [Compound 8, pyridine, 1-[3-[4-(diphenylmethylene-1-piperidinyl]-1-oxopropyl]-4-(fluorophenoxy)-1,2,3,6-tetrahydro-, 2-hydroxy-1,2,3-propane tricarboxylate(1:1), dihydrate], for which, in test [1], the “MRBA percent inhibition” value worked out at 64%.

With `Cl.Cl.c1ccc(C(=C2CCN(CCCCN3CCCCC3)CC2)c2ccccc2)cc1` [Compound 6, Piperidine, 4-(diphenylmethylene)-1-[4-[1-piperidinyl]butyl]-, dihydrochloride], in test [1], the “MRBA percent inhibition” value is recorded as 83%.

The Ki is the equilibrium dissociation constant of an inhibitor or competing ligand from its target. `Cl.Cl.Fc1ccc(C(=C2CCN(CCN3CCCCC3)CC2)c2ccc(F)cc2)cc1` [Compound 15, Piperidine, 4-[bis-(4-fluorophenyl)-methylene]-1-[2-(1-piperidinyl)ethyl]-, dihydrochloride] returned an HRBA percent inhibition in the test with brain dopamine receptors of 62%. Also, the Ki in test [2] amounted to 17 nM; on Histamine H1 receptor, 86 nM; at Dopamine D2 receptor, 56 nM. The “MRBA percent inhibition” value in test [1] is on record as 67%.

Regarding `CN1CCCC1CCN1CCC(=C(c2ccccc2)c2ccccc2)CC1` (stereo not drawn) [Compound 5, Piperidine, 4-(diphenylmethylene)-1-[2-(1-methyl-2-pyrrolidinyl)ethyl]-, dihydrochloride, hemihydrate], the values for the IC50 (at brain dopamine receptors (unit inferred); in test [1]) were 72.7 nM and 19.9 nM, respectively.

As for `c1ccc(C(=C2CCN(CCN3CCCCC3)CC2)c2ccccc2)cc1` [Compound 3, Piperidine, 4-(diphenylmethylene)-1-[2-(1-piperidinyl)ethyl]-, dihydrochloride, hydrate (4:1)], the IC50 amounted to 135 nM on brain dopamine receptors and 18.1 nM in test [1]. The values for the Ki (in test [2]; at Histamine H1 receptor (setting [3]); at Dopamine D2 receptor) were 3 nM, 12 nM and 105 nM, respectively.

`Fc1cccc(C(=C2CCN(CCCN3CCCCC3)CC2)c2ccccc2)c1` [Compound 19, Piperidine, 4-[(3-fluorophenyl)phenylmethylene]-1-[3-(1-piperidinyl)propyl]-, dihydrochloride] gave an HRBA percent inhibition in the test on brain dopamine receptors of 36%. In addition, the “MRBA percent inhibition” value in test [1] was 45%.

Take `OCCC1CCN(CCCN2CCC(=C(c3ccccc3)c3ccccc3)CC2)CC1` [Compound 13, 4-Piperidineethanol, 1-[3-[4-(diphenylmethylene)-1-piperidinyl]propyl]-,dihydrochloride, monohydrate]: the HRBA percent inhibition in the test on brain dopamine receptors came to 55%. The inhibition constant Ki in test [2] was 5 nM; on Histamine H1 receptor (setting [3]), 19.5 nM; on Dopamine D2 receptor it was 158 nM. For the same molecule, the “MRBA percent inhibition” value in test [1] amounted to 83%.

As to `O=C(CCN1CCC(=C(c2ccccc2)c2ccccc2)CC1)N1CCCc2ccccc21` [Compound 7], in test [1], the “MRBA percent inhibition” value came out at 52%.

For the molecule `c1ccc(C(=C2CCN(CCCN3CCCc4ccccc43)CC2)c2ccccc2)cc1`, the results for the inhibitory constant (Ki) (in test [2]; on Histamine H1 receptor (setting [3]); at Dopamine D2 receptor) were 11 nM, 31 nM and 42 nM, respectively.

In the test on brain dopamine receptors, `CC1(C)CC(=O)C=C(NCCN2CCC(=C(c3ccccc3)c3ccccc3)CC2)C1` [Compound 9, 2-Cyclohexen-1-one, 3-[[2-[4-(diphenylmethylene)-1-piperidinyl]ethyl]amino]-5,5-dimethyl] displayed an HRBA percent inhibition of 63%. Further, the Ki in test [2] worked out at 11 nM; at Histamine H1 receptor (setting [3]) it was 56 nM; on Dopamine D2 receptor, 75 nM. Besides, the “MRBA percent inhibition” value in test [1] is given as 73%.

`N#CN=C(NCCCN1CCC(=C(c2ccccc2)c2ccccc2)CC1)N1CCCCC1` [Compound 23, 1-Piperidinecarboximidamine, N'-cyano-N-[3-[4-diphenylmethylene]-1-piperidinyl]propyl] had an HRBA percent inhibition with brain dopamine receptors of 55%. Besides, the Ki in test [2] was 2 nM; on Histamine H1 receptor (setting [3]), 1.7 nM; at Dopamine D2 receptor, 28 nM. Also, in test [1], the “MRBA percent inhibition” value is 86%.

For the molecule `c1ccc(C(=C2CCN(CCCN3CCCCC3)CC2)c2ccccc2)cc1` [Compound 4, Piperidine, 4-(diphenylmethylene)-1-[3-(1-piperidinyl)propyl]-,dihydrochloride, hemihydrate], the IC50 came out at 50.4 nM at brain dopamine receptors and 15 nM in test [1].

As to `CSC(=NC#N)NCCCN1CCC(=C(c2ccccc2)c2ccccc2)CC1` [Compound 21, Carbamimidothioic acid, N'-cyano-N-[3-[4-(diphenylmethylene)-1-piperidinyl]-propyl]-, methyl ester], the IC50 on brain dopamine receptors was found to be 39.2 nM; in test [1] it was 64.7 nM. Besides, the Ki in test [2] came out at 8.6 nM; on Histamine H1 receptor (setting [3]), 0.38 nM; on Dopamine D2 receptor it was 32 nM.

On to `c1ccc(C(=C2CCN(CCN3CCCC3)CC2)c2ccccc2)cc1` [Compound 2, Piperidine, 4-(diphenylmethylene)-1-[2-(1-pyrrolidinyl)ethyl]-,dihydrochloride], for which the half-inhibitory concentration (IC50) worked out at 309 nM on brain dopamine receptors (unit inferred) and 8.4 nM in test [1].

`OC1CCN(CCCN2CCC(=C(c3ccccc3)c3ccccc3)CC2)CC1` [Compound 12, 4-Piperidinol, 1-[3-[4-(diphenylmethylene)-1-piperidinyl]propyl]-,dihydro-chloride, hemihydrate] gave an HRBA percent inhibition with brain dopamine receptors of 89%. Besides, the Ki in test [2] was found to be 15 nM; at Histamine H1 receptor (setting [3]), 6.1 nM; at Dopamine D2 receptor it was 25 nM. Moreover, the “MRBA percent inhibition” value in test [1] is recorded as 63%.

In the test on brain dopamine receptors, `Fc1ccc(C(=C2CCN(CCCN3CCCCC3)CC2)c2ccc(F)cc2)cc1` [Compound 14, Piperidine, 1-[3-(1-piperidinyl)propyl]-4-[bis-(4-fluorophenyl)-methylene]-, dihydrochloride, hydrate (2:1)] yielded an HRBA percent inhibition of 73%. In addition, the inhibitory constant (Ki) in test [2] is 23 nM; at Histamine H1 receptor (setting [3]), 16 nM; on Dopamine D2 receptor it was 67 nM. In addition, the “MRBA percent inhibition” value in test [1] is given as 57%.

`Cl.Cl.Clc1cccc(C(=C2CCN(CCCN3CCCCC3)CC2)c2ccccc2)c1` [Compound 18, Piperidine, 4-[(3-chlorophenyl)phenylmethylene]-1-[3-(1-piperidinyl)propyl]-, dihydrochloride] returned an HRBA percent inhibition with brain dopamine receptors of 52%. The “MRBA percent inhibition” value in test [1] stood at 37%.

In the test on brain dopamine receptors, `CN1CCCC1CCN1CCC(=C(c2ccc(F)cc2)c2ccc(F)cc2)CC1` (stereo not drawn) [Compound 16, Piperidine, 4-[bis-(4-fluorophenyl)-methylene]-1-[2-(1-methyl-2-pyrrolidinyl)ethyl]-, (E)-2-butanedioate (1:2)] registered an HRBA percent inhibition of 48%. In addition, the “MRBA percent inhibition” value in test [1] is on record as 36%.

As for `Fc1cccc(C(=C2CCN(CCCN3CCCCC3)CC2)c2cccc(F)c2)c1` [Compound 17, dihydrochloride], the “MRBA percent inhibition” value in test [1] is 32%.

As to `CNC(=NC#N)NCCCN1CCC(=C(c2ccccc2)c2ccccc2)CC1` [Compound 22, Guanidine, N'-cyano-N-[3-[4-(diphenylmethylene)-1-piperidinyl]propyl]-N'-methyl], the HRBA percent inhibition in the test on brain dopamine receptors was 73%. For the same molecule, the “MRBA percent inhibition” value in test [1] was 42%.

`Cl.Cl.O.c1ccc(C(=C2CCN(CCCN3CCCc4ccccc43)CC2)c2ccccc2)cc1` [Compound 10, Quinoline, 1-[3-[4-(diphenylmethylene]-1-piperidinyl]propyl]-1,2,3,4-tetrahydro-, dihydrochloride, monohydrate] yielded an HRBA percent inhibition with brain dopamine receptors of 69%. In test [1], the “MRBA percent inhibition” value was determined as 83%.
